# Laboratory results: the supplement of paper PMC10307832
# How the values were obtained:
# Test in all cases: relative viability (nuclei count vs DMSO), 5 days (fraction); higher = more cells survive
# Decitabine + Lapatinib = compound: Nc1ncn([C@H]2C[C@H](O)[C@@H](CO)O2)c(=O)n1 [Decitabine] + CS(=O)(=O)CCNCc1ccc(-c2ccc3ncnc(Nc4ccc(OCc5cccc(F)c5)c(Cl)c4)c3c2)o1 [Lapatinib] (partner 2 µM)
# Method in brief: (§1)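 Lung cancer cell lines, seeded in 1536-well plates, were treated the following day by pin tool with a single drug or with five library-drug doses (not always all listed) in √10 steps on top of a fixed anchor-drug dose. Cells were fixed and nuclei stained in one step after 5 days, and nuclei were counted. Relative viability is the nuclei count for treated wells divided by that for vehicle wells, reported as medians of duplicate plates.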
# [1] = compound: O=C(C[C@H]1NCCC[C@@H]1O)Cn1cnc2cc(Br)c(Cl)cc2c1=O (racemic) [Halofuginone] + C[C@]1(O)C[C@@H](c2nc(-c3ccc4ccc(-c5ccccc5)nc4c3)c3c(N)nccn32)C1 [Linsitinib] (partner 1 µM)
# Method in brief: as §1
# Cediranib + Alpelisib = compound: COc1cc2c(Oc3ccc4[nH]c(C)cc4c3F)ncnc2cc1OCCCN1CCCC1 [Cediranib] + Cc1nc(NC(=O)N2CCC[C@H]2C(N)=O)sc1-c1ccnc(C(C)(C)C(F)(F)F)c1 [Alpelisib] (partner 2 µM)
# Method in brief: as §1
# Cediranib + Phenformin = compound: COc1cc2c(Oc3ccc4[nH]c(C)cc4c3F)ncnc2cc1OCCCN1CCCC1 [Cediranib] + N=C(N)NC(=N)NCCc1ccccc1 [Phenformin] (partner 250 µM)
# Method in brief: as §1
Cell Line,relative viability (Decitabine + Lapatinib; first compound 0.04 µM),relative viability (Decitabine + Lapatinib; first compound 0.1265 µM),relative viability (Decitabine + Lapatinib; first compound 0.4 µM),relative viability (Decitabine + Lapatinib; first compound 1.265 µM),relative viability (Decitabine + Lapatinib; first compound 4 µM),relative viability ([1]; first compound 0.001 µM),relative viability ([1]; first compound 0.003162 µM),relative viability ([1]; first compound 0.01 µM),relative viability ([1]; first compound 0.03162 µM),relative viability ([1]; first compound 0.1 µM),relative viability (Cediranib + Alpelisib; first compound 0.04 µM),relative viability (Cediranib + Alpelisib; first compound 0.1265 µM),relative viability (Cediranib + Alpelisib; first compound 0.4 µM),relative viability (Cediranib + Alpelisib; first compound 1.265 µM),relative viability (Cediranib + Alpelisib; first compound 4 µM),relative viability (Cediranib + Phenformin; first compound 0.04 µM),relative viability (Cediranib + Phenformin; first compound 0.1265 µM),relative viability (Cediranib + Phenformin; first compound 0.4 µM),relative viability (Cediranib + Phenformin; first compound 1.265 µM),relative viability (Cediranib + Phenformin; first compound 4 µM)
NCI-H1993,0.837,0.774,0.8,0.731,0.725,0.742,0.685,0.72,0.801,0.544,0.734,0.709,0.631,0.677,0.791,0.423,0.5,0.484,0.523,0.393
LOU-NH91,0.764,0.712,0.649,0.689,0.661,0.97,0.977,0.97,0.977,0.842,0.702,0.952,0.695,0.672,0.615,0.688,0.986,0.696,0.625,0.673
SW 900,,,,,,,,,,,,,,,,0.658,0.604,0.698,0.496,0.645
LCLC-103H,,,,,,1.12,1.48,1.04,1.09,1.01,1.03,1.08,0.98,0.932,0.917,0.319,0.39,0.298,0.344,0.352
NCI-H1915,0.608,0.33,0.257,0.189,0.219,1.05,1.1,1,1.06,0.974,1.05,1,0.997,1.08,1.09,0.371,0.331,0.372,0.374,0.364
IA-LM,0.503,0.306,0.212,0.169,0.178,0.735,0.78,0.547,0.775,0.434,0.845,0.959,0.928,0.592,0.655,,,,,
NCI-H1734,0.727,0.91,0.635,0.449,0.38,0.904,0.947,0.888,0.938,0.416,0.626,0.741,0.711,0.619,0.848,0.403,0.458,0.383,0.388,0.433
SK-MES-1,0.463,0.49,0.406,0.383,0.286,1.14,1.05,1.01,0.812,0.552,0.835,0.916,0.8,0.924,1.02,0.663,0.748,0.618,0.626,0.639
Calu-6,0.87,0.689,0.316,0.308,0.264,1,,0.932,0.712,0.35,1.06,1.01,0.991,0.935,1.04,,,,,
HCC-15,0.634,0.778,0.223,0.345,0.366,0.914,0.908,0.839,0.92,0.688,0.961,,0.827,0.933,0.961,0.491,,0.474,0.512,0.509
SK-LU-1,0.66,0.604,0.42,0.457,0.38,1.18,0.559,1.14,0.912,0.58,0.753,1.2,0.958,0.933,1.01,0.541,0.708,0.497,0.456,0.439
NCI-H2023,0.55,0.519,0.125,0.231,0.157,0.76,0.535,0.706,0.232,0.157,0.667,0.706,0.58,0.559,0.667,0.417,0.443,0.396,0.42,0.458
HCC-366,0.938,1.07,0.214,0.164,0.113,0.638,0.69,0.692,0.618,0.126,0.402,0.316,0.363,0.401,0.388,0.536,0.594,0.614,0.738,0.663
NCI-H1355,0.884,0.592,0.444,0.286,0.279,0.825,0.819,0.832,0.822,0.61,0.993,0.879,0.704,0.838,0.956,0.441,0.456,0.427,0.442,0.408
NCI-H1650,0.595,0.649,0.217,0.494,0.372,,,,,,,,,,,0.436,0.581,0.351,0.362,0.341
NCI-H2342,,,,,,,,,,,,,,,,0.563,0.825,0.635,0.466,0.58
NCI-H1299,0.972,0.989,0.953,0.918,0.855,1.01,1.23,0.972,0.955,0.732,1.09,1.03,1.01,1.04,1.14,,,,,
NCI-H522,,,,,,,,,,,,,,,,0.623,0.608,0.575,0.64,0.687
NCI-H1623,,,,,,,,,,,,,,,,0.587,,0.553,0.595,0.567
NCI-H2170,0.281,0.267,0.268,0.251,0.249,,,,,,0.823,0.901,0.744,0.748,0.882,0.373,0.284,0.403,0.406,0.419
NCI-H1703,0.698,0.652,0.484,0.36,0.274,0.944,1.03,0.617,0.559,0.353,0.264,0.337,0.218,0.205,0.169,,,,,
ChaGo-K-1,,,,,,,,,,,,,,,,0.486,0.361,0.452,0.564,0.576
